# Measured values from patent publication US5705491A, “Adenosine deaminase inhibitor” (Nippon Zoki Pharmaceutical Co., Ltd., priority 1992, dated 1998).
# pKi: −log10 of the molar value.
# Test system: ischemic edema of hind paw of mice
# Test: Suppressive action against ischemic edema
# Type: in vivo, ICR-strain male mice
# Settings: 10 mg/kg intravenous before ischemia; treated paw
# Experimental: 4. Suppressive Action against Ischemic Edema
# The right hind paw of ICR-strain male mice (11 weeks of age) were fastened with a rubber band to stop the blood stream for 20 minutes, and then the rubber band was removed to recover the blood stream. The tested drug was administered intravenously before the treatment. Each of the right and left hind paws were weighed and the suppressive action was measured according to the weight difference between the treated and untreated paws.
row,Compound,"Paw Weight, Treated [mg]"
1,Oc1ncnc2[nH]ncc12 [Allopurinol],283.2 ± 6.3

# Same assay, conditions: 10 mg/kg intravenous before ischemia; untreated paw
row,Compound,"Paw Weight, Untreated [mg]"
1,Oc1ncnc2[nH]ncc12 [Allopurinol],222.9 ± 6.9

# Same assay, conditions: 10 mg/kg intravenous; from weight difference between treated and untreated paws
row,Compound,Inhibition (of ischemic edema) [%]
1,Oc1ncnc2[nH]ncc12 [Allopurinol],36.4

# Biological target: T1, adenosine deaminase of type VII (mucous membrane of intestinal tract of calf) (Bos taurus, UniProt P56658)
# T1 construct: from tissue; host or cells: mucous membrane of intestinal tract of calf
# T1 sequence (P56658 1-363): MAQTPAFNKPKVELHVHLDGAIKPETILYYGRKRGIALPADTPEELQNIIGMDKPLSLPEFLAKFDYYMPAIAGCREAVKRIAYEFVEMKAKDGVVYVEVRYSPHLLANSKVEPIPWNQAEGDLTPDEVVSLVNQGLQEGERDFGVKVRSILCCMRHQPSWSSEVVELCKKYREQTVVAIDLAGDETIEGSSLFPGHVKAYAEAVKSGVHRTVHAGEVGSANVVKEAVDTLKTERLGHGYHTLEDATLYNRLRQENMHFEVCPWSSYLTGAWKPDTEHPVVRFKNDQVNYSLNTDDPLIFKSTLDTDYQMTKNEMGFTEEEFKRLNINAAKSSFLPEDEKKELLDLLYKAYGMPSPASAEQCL
# Test: Adenosine deaminase inhibiting action
# Type: biochemical
# Settings: 25° C., 0.05M phosphate buffer pH 7.5, adenosine substrate, 5 minutes, Lineweaver-Burk plots
# Experimental: 1. Adenosine Deaminase Inhibiting Action
# The enzymatic reaction was conducted at 25° C. in a 0.05M phosphate buffer (pH=7.5). Thus, a reaction solution comprising 800 μl of substrate solution (adenosine), 100 μl of a solution to be tested and 100 μl of enzyme solution (adenosine deaminase of type VII; mucous membrane of intestinal tract of calf) was reacted for 5 minutes and the reaction was stopped by adding 100 μl of acetic acid. Then the amount of inosine produced was determined by means of an HPLC to measure the inhibiting activity. The test was conducted for various substrate concentrations and Ki values were measured by Lineweaver-Burk plots.
row,Compound,pKi
1,"CO[C@@H]1[C@H](O)[C@@H](CO)O[C@H]1n1cnc2c(N)ncnc21 [Compound 1, 2'-O-Methyladenosine]",4.88
2,"CCCCO[C@@H]1[C@H](O)[C@@H](CO)O[C@H]1n1cnc2c(N)ncnc21 [Compound 4, 2'-O-n-Butyladenosine]",5.46
3,"CO[C@H]1[C@@H](O)[C@H](n2cnc3c(N)nc(C)nc32)O[C@@H]1CO [Compound 6, 2,3'-O-Dimethyl adenosine]",3.75
4,"CCCCNc1ncnc2c1ncn2[C@@H]1O[C@H](CO)[C@@H](O)[C@H]1OC [Compound 20, N^6-n-Butyl-2'-O-methyladenosine]",3.57
5,"CCO[C@@H]1[C@H](O)[C@@H](CO)O[C@H]1n1cnc2c(NC)ncnc21 [Compound 21, N^6 -Methyl-2'-O-ethyladenosine]",6.48
6,"CCCCCCO[C@@H]1[C@H](O)[C@@H](CO)O[C@H]1n1cnc2c(NC)ncnc21 [Compound 23, N^6 -Methyl-2'-O-n-hexyladenosine]",6.05
7,"CCCCCCCCO[C@@H]1[C@H](O)[C@@H](CO)O[C@H]1n1cnc2c(NC)ncnc21 [Compound 24, N^6 -Methyl-2'-O-n-octyladenosine]",6.96
8,"CNc1ncnc2c1ncn2[C@@H]1O[C@H](COC)[C@@H](O)[C@H]1O [Compound 25, N^6, 5'-O-Dimethyladenosine]",3.44
9,"CCCCCCCCCCc1nc(NC)c2ncn([C@@H]3O[C@H](CO)[C@@H](O)[C@H]3OC)c2n1 [Compound 31, N^6,2'-O-Dimethyl-2-decyladenosine]",6.55
10,"CCCCC#Cc1nc(NC)c2ncn([C@@H]3O[C@H](CO)[C@@H](O)[C@H]3OC)c2n1 [Compound 32, N^6,2'-O-Dimethyl-2-(1-hexyn-1-yl)-adenosine]",6.92
11,"CO[C@@H]1[C@H](O)[C@@H](CO)O[C@H]1n1cnc2c(N)nc(O)nc21 [Compound 39, 2-Hydroxy-2'-O-methyladenosine]",4.72
12,"CO[C@@H]1[C@H](O)[C@@H](CO)O[C@H]1n1cnc2c(N)nc(Br)nc21 [Compound 43, 2-Bromo-2'-O-methyladenosine]",5.49
13,"CNc1nc(Br)nc2c1ncn2[C@@H]1O[C@H](CO)[C@@H](O)[C@H]1OC [Compound 45, 2-Bromo-N^6,2'-O-dimethyladenosine]",6.92
14,"CCCCCNc1nc(N)c2ncn([C@@H]3O[C@H](CO)[C@@H](O)[C@H]3OC)c2n1 [Compound 52, 2-Pentylamino-2'-O-methyladenosine]",6.22
15,"CO[C@@H]1[C@H](O)[C@@H](CO)O[C@H]1n1cnc2c(N)nc(Nc3ccccc3)nc21 [Compound 53, 2-Phenylamino-2'-O-methyladenosine]",6.77
16,"CO[C@H]1[C@@H](O)[C@H](n2cnc3c(N)nc(Nc4ccccc4)nc32)O[C@@H]1CO [Compound 54, 2-Phenylamino-3'-O-methyladenosine]",5.66
17,"CNc1nc(C)nc2c1ncn2[C@@H]1O[C@H](CO)[C@@H](OC)[C@H]1OC [Compound 64, 2,N^6,2',3'-O-Tetramethyladenosine]",6.06
18,"CO[C@@H]1[C@H](O)[C@@H](CO)O[C@H]1n1cnc2c(NC3CCCCC3)ncnc21 [Compound 73, N^6 -Cyclohexyl-2'-O-methyladenosine]",2.99

# The next lines start with the values.
row,pKi,Compound
1,3.31,"CO[C@H]1[C@@H](O)[C@H](n2cnc3c(N)ncnc32)O[C@@H]1CO [Compound 2, 3'-O-Methyladenosine]"
2,4.61,"CO[C@@H]1[C@H](O)[C@@H](CO)O[C@H]1n1cnc2c(N)nc(C)nc21 [Compound 5, 2,2'-O-Dimethyl adenosine]"
3,5.91,"CNc1ncnc2c1ncn2[C@@H]1O[C@H](CO)[C@@H](O)[C@H]1OC [Compound 18, N^6,2'-O-Dimethiladenosine]"
4,4.11,"CCNc1ncnc2c1ncn2[C@@H]1O[C@H](CO)[C@@H](O)[C@H]1OC [Compound 19, N^6 -Ethyl-2'-O-methyladenosine]"
5,7.25,"CCCCO[C@@H]1[C@H](O)[C@@H](CO)O[C@H]1n1cnc2c(NC)ncnc21 [Compound 22, N^6 -Methyl-2'-O-n-butyladenosine]"
6,7.05,"CCCCCCc1nc(NC)c2ncn([C@@H]3O[C@H](CO)[C@@H](O)[C@H]3OC)c2n1 [Compound 30, N^6,2'-O-Dimethyl-2-hexyladenosine]"
7,4.82,"CCCCCCCCCCC#Cc1nc(NC)c2ncn([C@@H]3O[C@H](CO)[C@@H](O)[C@H]3OC)c2n1 [Compound 33, N^6,2'-O-Dimethyl-2-(1-dodecyn-1-yl)-adenosine]"
8,3.44,"CNc1nc(C)nc2c1ncn2[C@@H]1O[C@H](COC)[C@@H](O)[C@H]1O [Compound 34, 2,N^6,5'-O-Trimethyladenosine]"
9,6.18,"CO[C@@H]1[C@H](O)[C@@H](CO)O[C@H]1n1cnc2c(N)nc(-c3ccccc3)nc21 [Compound 37, 2-Phenyl-2'-O-methyladenosine]"
10,5.10,"CO[C@H]1[C@@H](O)[C@H](n2cnc3c(N)nc(-c4ccccc4)nc32)O[C@@H]1CO [Compound 38, 2-Phenyl-3'-O-methyladenosine]"
11,4.66,"CO[C@H]1[C@@H](O)[C@H](n2cnc3c(N)nc(Br)nc32)O[C@@H]1CO [Compound 44, 2-Bromo-3'-O-methyladeonsine]"
12,5.43,"CNc1nc(Br)nc2c1ncn2[C@@H]1O[C@H](CO)[C@@H](OC)[C@H]1O [Compound 46, 2-Bromo-N^6,3'-O-dimethyladeonsine]"
13,6.64,"CO[C@@H]1[C@H](O)[C@@H](CO)O[C@H]1n1cnc2c(N)nc(I)nc21 [Compound 47, 2-Iodo-2'-O-methyladenosine]"
14,5.36,"CO[C@H]1[C@@H](O)[C@H](n2cnc3c(N)nc(I)nc32)O[C@@H]1CO [Compound 48, 2-Iodo-3'-O-methyladeonsine]"
15,4.55,"CO[C@@H]1[C@H](O)[C@@H](CO)O[C@H]1n1cnc2c(N)nc(N)nc21 [Compound 50, 2-Amino-2'-O-methyladenosine]"
16,5.30,"CO[C@H]1[C@@H](O)[C@H](n2cnc3c(N)nc(N)nc32)O[C@@H]1CO [Compound 51, 2-Amino-3'-O-methyladenosine]"
17,7.89,"CNc1nc(Nc2ccccc2)nc2c1ncn2[C@@H]1O[C@H](CO)[C@@H](O)[C@H]1OC [Compound 55, 2-Phenylamino-N^6,2'-O-dimethyladenosine]"
18,6.96,"CNc1nc(Nc2ccccc2)nc2c1ncn2[C@@H]1O[C@H](CO)[C@@H](OC)[C@H]1O [Compound 56, 2-Phenylamino-N^6,3'-O-dimethyladenosine]"
19,4.52,"CO[C@@H]1[C@H](O)[C@@H](CO)O[C@H]1n1cnc2c(N)nc(C#CCO)nc21 [Compound 57, 2-(3-Hydroxy-1-propyn-1-yl)-2'-O-methyladenosine]"
20,5.12,"CO[C@@H]1[C@H](OC)[C@@H](CO)O[C@H]1n1cnc2c(N)ncnc21 [Compound 59, 2',3'-O-Dimethyladenosine]"
21,6.12,"CNc1ncnc2c1ncn2[C@@H]1O[C@H](CO)[C@@H](OC)[C@H]1OC [Compound 60, N^6,2',3'-O-Trimethyladenosine]"
22,6.82,"CCO[C@@H]1[C@H](OCC)[C@@H](CO)O[C@H]1n1cnc2c(NC)ncnc21 [Compound 61, N^6 -Methyl-2',3'-O-diethyladenosine]"
23,5.89,"CO[C@@H]1[C@H](OC)[C@@H](CO)O[C@H]1n1cnc2c(N)nc(C)nc21 [Compound 63, 2,2',3'-O-Trimethyladenosine]"
